Experimental data reported in patent publication US11236046B2, “Substituted heterocyclic sulfonamide compounds useful as TRPA1 modulators” (Genentech, Inc., priority 2013, dated 2022).

Target: human TRPA1 (Homo sapiens (Human), UniProt O75762)
Experiment: FLIPR Tetra calcium influx assay, block of cinnamaldehyde-induced calcium influx in CHO cells expressing TRPA1 (human)
Assay type: cell-based
Settings: 20 min compound incubation, 75 uM cinnamaldehyde (~EC80), Hill coefficient fixed to 1.5, read-out: hTRPA1 AUC IC50
Outline: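 CHO cells loaded with calcium dye, preincubated with compounds 20 min at room temperature in HBSS/20 mM HEPES pH 7.4 with 0.02% BSA. Channels activated by ~EC80 cinnamaldehyde (75 uM human, 45 uM rat); block of calcium influx read on FLIPR Tetra, IC50 fitted with fixed Hill coefficient.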

Sequence of human TRPA1 (O75762 whole entry): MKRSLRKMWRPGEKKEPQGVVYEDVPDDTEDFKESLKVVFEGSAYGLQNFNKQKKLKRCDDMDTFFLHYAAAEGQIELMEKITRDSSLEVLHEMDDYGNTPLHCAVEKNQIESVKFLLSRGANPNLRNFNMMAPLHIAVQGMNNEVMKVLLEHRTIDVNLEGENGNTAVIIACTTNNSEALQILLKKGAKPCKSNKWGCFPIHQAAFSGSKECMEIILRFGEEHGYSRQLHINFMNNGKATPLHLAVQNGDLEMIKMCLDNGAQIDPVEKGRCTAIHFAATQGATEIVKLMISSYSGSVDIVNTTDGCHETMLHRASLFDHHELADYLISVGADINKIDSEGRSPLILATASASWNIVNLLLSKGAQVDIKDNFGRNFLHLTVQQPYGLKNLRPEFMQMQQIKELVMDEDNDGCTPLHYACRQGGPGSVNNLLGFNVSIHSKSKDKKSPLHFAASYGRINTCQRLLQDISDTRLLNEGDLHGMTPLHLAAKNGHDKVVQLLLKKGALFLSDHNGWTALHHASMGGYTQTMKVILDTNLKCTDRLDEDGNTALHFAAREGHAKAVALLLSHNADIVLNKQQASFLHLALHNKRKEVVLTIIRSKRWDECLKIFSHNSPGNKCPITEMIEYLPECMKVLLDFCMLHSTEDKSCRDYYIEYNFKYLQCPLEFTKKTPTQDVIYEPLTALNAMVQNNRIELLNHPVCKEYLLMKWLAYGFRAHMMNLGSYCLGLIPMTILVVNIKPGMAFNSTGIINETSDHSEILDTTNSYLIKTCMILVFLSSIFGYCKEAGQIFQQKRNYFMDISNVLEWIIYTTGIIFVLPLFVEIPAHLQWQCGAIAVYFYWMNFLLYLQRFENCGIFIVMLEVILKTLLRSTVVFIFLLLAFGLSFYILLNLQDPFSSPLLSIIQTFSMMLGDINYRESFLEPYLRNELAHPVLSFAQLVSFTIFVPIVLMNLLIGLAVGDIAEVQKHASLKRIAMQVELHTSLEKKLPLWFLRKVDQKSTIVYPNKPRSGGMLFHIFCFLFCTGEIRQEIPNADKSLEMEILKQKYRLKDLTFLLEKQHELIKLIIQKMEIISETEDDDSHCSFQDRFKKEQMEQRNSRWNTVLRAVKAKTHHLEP

Structure (SMILES)	IC50 [nM]
O=C(NCc1cc(-c2ccc(C(F)(F)F)nc2)ccn1)[C@@H]1C[C@@H](F)CN1S(=O)(=O)c1ccc(F)cc1 [Example 81, (2S,4R)-4-fluoro-1-(4-fluorophenyl)sulfonyl-N-[[4-[6-(trifluoromethyl)-3-pyridyl]-2-pyridyl]methyl]pyrrolidine-2-carboxamide]	187
O=C(NCc1cncc(-c2cnc(C(F)(F)F)nc2)c1)[C@@H]1C[C@@H](F)CN1S(=O)(=O)c1ccc(F)cc1 [Example 195, (2S,4R)-4-fluoro-1-(4-fluorophenyl)sulfonyl-N-[[5-[2-(trifluoromethyl)pyrimidin-5-yl]-3-pyridyl]methyl]pyrrolidine-2-carboxamide]	795
O=C(NCc1cc(-c2ccc(C(F)(F)F)cc2)ncn1)[C@@H]1C[C@@H](F)CN1S(=O)(=O)c1ccc(F)c(F)c1 [Example 150, (2S,4R)-1-(3,4-difluorophenylsulfonyl)-4-fluoro-N-((6-(4-(trifluoromethyl)phenyl)pyrimidin-4-yl)methyl)pyrrolidine-2-carboxamide]	46
COc1cc(CNC(=O)[C@@H]2C[C@@H](F)CN2S(=O)(=O)c2ccc(F)cc2)cc(-c2ccc(C(F)(F)F)nc2)c1 [Example 116, (2S,4R)-4-fluoro-1-(4-fluorophenyl)sulfonyl-N-[[3-methoxy-5-[6-(trifluoromethyl)-3-pyridyl]phenyl]methyl]pyrrolidine-2-carboxamide]	47
O=C(NCc1cn(-c2ccc(C(F)(F)F)cc2)nc1Cl)[C@@H]1CCN1S(=O)(=O)c1ccc(F)cc1 [Example 197, (2S)—N-([3-chloro-1-[4-(trifluoromethyl)phenyl]-1H-pyrazol-4-yl]methyl)-1-[(4-fluorobenzene)sulfonyl]azetidine-2-carboxamide]	15
C[C@@H]1CC[C@@H](C(=O)NCc2cc(-c3ccc(C(F)(F)F)nc3)ncn2)N1S(=O)(=O)c1ccc(F)cc1 [Example 39, (2S,5R)-1-[(4-fluorobenzene)sulfonyl]-5-methyl-N-([6-[6-(trifluoromethyl)pyridin-3-yl]pyrimidin-4-yl]methyl)pyrrolidine-2-carboxamide]	45
C[C@H]1CC[C@@H](C(=O)NCc2cc(-c3ccc(C(F)(F)F)nc3)ncn2)N1S(=O)(=O)c1ccc(F)cc1 [Example 41, (2S,5S)-1-[(4-fluorobenzene)sulfonyl]-5-methyl-N-([6-[6-(trifluoromethyl)pyridin-3-yl]pyrimidin-4-yl]methyl)pyrrolidine-2-carboxamide]	5
O=C(NCc1cc(N2CCC3(CC2)CC3(F)F)c(F)cn1)[C@@H]1C[C@@H](F)CN1S(=O)(=O)c1ccc(F)cc1 [Example 69, (2S,4R)—N-[[4-(2,2-difluoro-6-azaspiro[2.5]octan-6-yl)-5-fluoro-2-pyridyl]methyl]-4-fluoro-1-(4-fluorophenyl)sulfonyl-pyrrolidine-2-carboxamide]	14
C[C@@]1(F)C[C@@H](C(=O)NCc2cc(-c3ccc(OC(F)(F)F)cc3)ncn2)N(S(=O)(=O)c2ccc(F)cc2)C1 [Example 46, (2S,4R)-4-fluoro-1-((4-fluorophenyl)sulfonyl)-4-methyl-N-((6-(4-(trifluoromethoxy)phenyl)pyrimidin-4-yl)methyl)pyrrolidine-2-carboxamide]	20
Cc1cnc(CNC(=O)[C@@H]2C[C@@H](F)CN2S(=O)(=O)c2ccc(F)cc2)cc1-c1ccc(C(F)(F)F)nc1 [Example 96, (2S,4R)-4-fluoro-1-(4-fluorophenyl)sulfonyl-N-[[5-methyl-4-[6-(trifluoromethyl)-3-pyridyl]-2-pyridyl]methyl]pyrrolidine-2-carboxamide]	162
O=C(NCc1cc(-c2ccc(C(F)(F)F)nc2)ccc1F)[C@@H]1C[C@@H](F)CN1S(=O)(=O)c1ccc(F)cc1 [Example 161, (2S,4R)-4-fluoro-N-(2-fluoro-5-(6-(trifluoromethyl)pyridin-3-yl)benzyl)-1-((4-fluorophenyl)sulfonyl)pyrrolidine-2-carboxamide]	9
O=C(NCc1cc(F)cc(-c2nc(C(F)(F)F)cs2)c1)[C@@H]1C[C@@H](F)CN1S(=O)(=O)c1ccc(F)cc1 [Example 175, (2S,4R)-4-fluoro-1-(4-fluorophenyl)sulfonyl-N-[[3-fluoro-5-[4-(trifluoromethyl)thiazol-2-yl]phenyl]methyl]pyrrolidine-2-carboxamide]	86
O=C(NCc1cc(F)cc(-c2cnc(C(F)(F)F)cn2)c1)[C@@H]1[C@@H](F)CCN1S(=O)(=O)c1ccc(F)cc1 [Example 98, (2R,3S)-3-fluoro-N-([3-fluoro-5-[5-(trifluoromethyl)pyrazin-2-yl]phenyl]methyl)-1-[(4-fluorobenzene)sulfonyl]pyrrolidine-2-carboxamide]	4
O=C(NCc1cc(-c2ccc3c(c2)OC(F)(F)O3)ncn1)[C@@H]1C[C@@H](F)CN1S(=O)(=O)c1ccc(F)cc1 [Example 92, (2S,4R)—N-[[6-(2,2-difluoro-2H-1,3-benzodioxol-5-yl)pyrimidin-4-yl]methyl]-4-fluoro-1-[(4-fluorobenzene)sulfonyl]pyrrolidine-2-carboxamide]	87
O=C(NCc1cc(C23CCC(C(F)F)(CC2)CC3)ncn1)[C@@H]1C[C@@H](F)CN1S(=O)(=O)c1ccc(F)cc1 [Example 133, (2S,4R)—N-[[6-[4-(difluoromethyl)-1-bicyclo[2.2.2]octanyl]pyrimidin-4-yl]methyl]-4-fluoro-1-(4-fluorophenyl)sulfonyl-pyrrolidine-2-carboxamide]	59
O=C(NCc1cc(-c2ccc(C(F)F)cc2)c(F)cn1)[C@@H]1C[C@@H](F)CN1S(=O)(=O)c1ccc(F)cc1 [Example 88, (2S,4R)—N-[[4-[4-(difluoromethyl)phenyl]-5-fluoro-2-pyridyl]methyl]-4-fluoro-1-(4-fluorophenyl)sulfonyl-pyrrolidine-2-carboxamide]	41
O=C(NCc1cc(-c2ccc(C(F)(F)F)nc2)ncn1)C1C2CC(CC2F)N1S(=O)(=O)c1ccc(F)cc1 (stereo not drawn) [Example 51, 5-fluoro-2-(4-fluorophenyl)sulfonyl-N-[[6-[6-(trifluoromethyl)-3-pyridyl]pyrimidin-4-yl]methyl]-2-azabicyclo[2.2.1]heptane-3-carboxamide]	52
O=C(NCc1cc(F)cc(-c2ccc(C(F)F)cn2)c1)[C@@H]1C[C@@H](F)CN1S(=O)(=O)c1ccc(F)cc1 [Example 75, (2S,4R)—N-[[3-[5-(difluoromethyl)-2-pyridyl]-5-fluoro-phenyl]methyl]-4-fluoro-1-(4-fluorophenyl)sulfonyl-pyrrolidine-2-carboxamide]	31
O=C(NCc1cc(-c2ccc(C(F)(F)F)nc2)ncn1)[C@@H]1C[C@@H](F)CN1S(=O)(=O)c1ccc(F)cc1 [Example 154, (2S,4R)-4-fluoro-1-(4-fluorophenylsulfonyl)-N-((6-(6-(trifluoromethyl)pyridin-3-yl)pyrimidin-4-yl)methyl)pyrrolidine-2-carboxamide]	97
N#Cc1ccc(-c2cnc(C(F)(F)F)nc2)cc1CNC(=O)[C@@H]1[C@@H](F)CCN1S(=O)(=O)c1ccc(F)cc1 [Example 38, (2R,3S)—N-([2-cyano-5-[2-(trifluoromethyl)pyrimidin-5-yl]phenyl]methyl)-3-fluoro-1-[(4-fluorobenzene)sulfonyl]pyrrolidine-2-carboxamide]	14
O=C(NCc1cc(F)cc(-n2ccc(C(F)(F)F)n2)c1)[C@@H]1C[C@@H](F)CN1S(=O)(=O)c1ccc(F)cc1 [Example 87, (2S,4R)-4-fluoro-1-(4-fluorophenyl)sulfonyl-N-[[3-fluoro-5-[3-(trifluoromethyl)pyrazol-1-yl]phenyl]methyl]pyrrolidine-2-carboxamide]	103
O=C(NCc1ccnc(-c2ccc(OC(F)(F)F)cc2)c1)[C@@H]1C[C@@H](F)CN1S(=O)(=O)c1ccc(F)cc1 [Example 159, (2S,4R)-4-fluoro-1-(4-fluorophenyl)sulfonyl-N-[[2-[4-(trifluoromethoxy)phenyl]-4-pyridyl]methyl]pyrrolidine-2-carboxamide]	18
O=C(NCc1cc(-c2ccc(C(F)(F)F)cn2)cc(F)n1)[C@@H]1C[C@@H](F)CN1S(=O)(=O)c1ccc(F)cc1 [Example 49, (2S,4R)-4-fluoro-N-([6-fluoro-4-[5-(trifluoromethyl)pyridin-2-yl]pyridin-2-yl]methyl)-1-[(4-fluorobenzene)sulfonyl]pyrrolidine-2-carboxamide]	9
O=C(NCc1cc(-c2ccc(C(F)F)c(F)c2)ncn1)[C@@H]1C[C@@H](F)CN1S(=O)(=O)c1ccc(F)cc1 [Example 59, (2S,4R)—N-[[6-[4-(difluoromethyl)-3-fluoro-phenyl]pyrimidin-4-yl]methyl]-4-fluoro-1-(4-fluorophenyl)sulfonyl-pyrrolidine-2-carboxamide]	29
O=C(NCc1cc(-c2ccc(C(F)(F)F)nc2)cc(F)n1)[C@@H]1C[C@@H](F)CN1S(=O)(=O)c1ccc(F)cc1 [Example 120, (2S,4R)-4-fluoro-1-(4-fluorophenyl)sulfonyl-N-[[6-fluoro-4-[6-(trifluoromethyl)-3-pyridyl]-2-pyridyl]methyl]pyrrolidine-2-carboxamide]	49
O=C(NCc1cc(N2C3CCC2CC(C(F)(F)F)C3)c(F)cn1)[C@@H]1C[C@@H](F)CN1S(=O)(=O)c1ccc(F)cc1 (stereo partly drawn) [Example 121, (2S,4R)-4-fluoro-N-([5-fluoro-4-[3-(trifluoromethyl)-8-azabicyclo[3.2.1]octan-8-yl]pyridin-2-yl]methyl)-1-[(4-fluorobenzene)sulfonyl]pyrrolidine-2-carboxamide]	741
O=C(NCc1cc(-c2cnc(C(F)(F)F)cn2)ccn1)[C@@H]1C[C@@H](F)CN1S(=O)(=O)c1ccc(F)cc1 [Example 82, (2S,4R)-4-fluoro-1-(4-fluorophenyl)sulfonyl-N-[[4-[5-(trifluoromethyl)pyrazin-2-yl]-2-pyridyl]methyl]pyrrolidine-2-carboxamide]	189
